Measured values from US5436246A, “Serotonin receptor agents” (priority 1993, dated 1995).
Counter-ions that a name gives are not always drawn. Like-named read-outs stand apart in the source and are kept apart here.

Tests used:
5HT1A receptor = target: T1, 5HT1A receptor (Rattus norvegicus, UniProt P19327); assay: 5HT1A receptor binding affinity (procedure of Gozlan et al.)
T1 sequence (P19327 1-422): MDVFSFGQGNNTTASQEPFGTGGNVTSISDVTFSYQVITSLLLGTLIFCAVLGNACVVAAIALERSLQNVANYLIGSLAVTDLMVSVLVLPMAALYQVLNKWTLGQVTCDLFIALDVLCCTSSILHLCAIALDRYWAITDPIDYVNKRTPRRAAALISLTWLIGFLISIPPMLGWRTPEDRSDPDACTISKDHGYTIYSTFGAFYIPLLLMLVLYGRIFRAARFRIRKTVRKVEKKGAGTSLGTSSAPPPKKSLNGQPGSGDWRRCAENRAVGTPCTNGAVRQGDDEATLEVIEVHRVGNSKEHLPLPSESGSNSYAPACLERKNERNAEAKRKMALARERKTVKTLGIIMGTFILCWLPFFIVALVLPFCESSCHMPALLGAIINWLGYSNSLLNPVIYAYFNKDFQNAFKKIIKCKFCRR
Method: In the following examples, the compounds binding affinity for both the 5HT1A receptor and 5HT1D receptors is reported. The compounds affinity for the 5HT1D site was determined by the binding procedure of Peroutka et al as reported in European Journal of Pharmacology, Vol. 163 at pages 133-166 (1989). The compounds affinity for the 5HT1A receptor was determined by the procedure of Gozlan et al., as reported in Nature, Volume 305, at pages 140-142 (1983). Where multiple determinations of the binding affinity have been performed, the average is given followed by the number of determinations in parentheses. Also, the PA2 value for the saphenous vein preparation as described in this application is given, followed by the intrinsic (agonist) activity in parentheses, expressed as a percentage. [drawing 10] […]

[1] = acetic acid writhing test (analgesic effect); type: in vivo; details: Mus musculus, sc, 0.5 h; mice, subcutaneous, 30 minutes before acetic acid i.p. (0.25% v/v, 0.4 ml)
Method: Eide, Neuropharm. 31, 541 (1992). […] One such model is the acetic acid writhing test. In this test, a group containing from 5-10 mice are administered the test compound subcutaneously. Thirty minutes after administration of the test compound, the mice are administered acetic acid intraperitoneally (0.25 % v/v, 0.4 ml). The mice are then observed for squirming and writhing. Analgesics block this squirming and writhing.

5HT1D receptor = target: T2, 5HT1D receptor (Bos taurus, UniProt F1MGM3); assay: 5HT1D receptor binding affinity (procedure of Peroutka et al.)
T2 construct: from tissue
T2 sequence (F1MGM3 1-403): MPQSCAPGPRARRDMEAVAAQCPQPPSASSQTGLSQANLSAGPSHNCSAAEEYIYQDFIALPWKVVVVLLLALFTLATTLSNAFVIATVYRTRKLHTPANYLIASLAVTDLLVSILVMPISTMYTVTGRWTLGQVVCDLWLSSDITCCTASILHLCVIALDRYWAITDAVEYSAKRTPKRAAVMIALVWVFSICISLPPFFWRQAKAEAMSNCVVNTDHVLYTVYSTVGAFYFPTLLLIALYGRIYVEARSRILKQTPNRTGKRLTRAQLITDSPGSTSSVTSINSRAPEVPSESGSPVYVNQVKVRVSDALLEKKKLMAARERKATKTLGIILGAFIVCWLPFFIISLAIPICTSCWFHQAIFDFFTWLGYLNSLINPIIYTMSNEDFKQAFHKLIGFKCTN
Method: The compounds affinity for the 5HT1D site was determined by the binding procedure of Peroutka et al as reported in European Journal of Pharmacology, Vol. 163 at pages 133-166 (1989). […] Where multiple determinations of the binding affinity have been performed, the average is given followed by the number of determinations in parentheses.

[2] = Bielenberg et al., Stroke Supplement IV, 21 (1990); cited from earlier work
[3] = fear-potentiated startle test (anxiolytic activity); type: in vivo; details: rats
Source text: Animals were trained and tested for tear-potentiated startle in a modification of the methods reported in Hitchcock and Davis (1991). Briefly, rats first were given a matching session consisting of 30 startle stimuli. […] A training session took place one to two days later in which the rats were given 10 paired trials consisting of a visual conditioned stimulus (a light) immediately followed by an unconditioned stimulus (footshock). The test session took place two days later. The product of Example No. 15 was administered s.c. in the flank and fifteen minutes later, the rats were given startle stimuli in the absence of the conditioned stimulus (baseline startle measurement; Noise-Alone trials) or in the presence of the conditioned stimulus (fear-potentiated startle measurement; Light-Noise trials). Fear-potentiated startle was defined as higher startle in the presence of the conditioned fear stimulus than in its absence.
Statistical analysis was done on the mean startle amplitudes on the Noise-Alone and Light-Noise trials, and the mean Difference scores (Light-Noise minus Noise-Alone means). One-way analysis of variance was run on the Difference scores and on the Noise-Alone scores. Multiple comparison test (Fisher PLSD) were used to compare each dose group to the vehicle control group.

[4] = Eur. J. Pharmacol. 180, 339 (1990); 182, 63 (1990); cited from earlier work
[5] = system: dorsal raphe nucleus neurons; details: Vandermaelen et al.; cited from earlier work
5-HT1D receptors = 5-HT1D receptors (Canis lupus familiaris, UniProt P79250); parameters: species or system dog (canine); details: for Emax: dog, read-out: intrinsic (agonist) activity, saphenous vein preparation
Sequence of 5-HT1D receptors (P79250 whole entry): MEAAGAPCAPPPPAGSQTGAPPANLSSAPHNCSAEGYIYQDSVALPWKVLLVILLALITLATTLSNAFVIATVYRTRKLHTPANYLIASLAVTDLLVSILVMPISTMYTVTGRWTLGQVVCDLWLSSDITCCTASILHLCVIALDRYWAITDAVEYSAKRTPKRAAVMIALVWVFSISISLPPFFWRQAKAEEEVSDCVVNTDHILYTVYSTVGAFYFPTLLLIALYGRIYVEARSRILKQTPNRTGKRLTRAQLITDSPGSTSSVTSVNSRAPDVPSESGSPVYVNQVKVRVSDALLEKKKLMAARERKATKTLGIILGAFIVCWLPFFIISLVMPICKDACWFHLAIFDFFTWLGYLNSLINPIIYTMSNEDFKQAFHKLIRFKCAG
Method: In the following examples, the compounds binding affinity for both the 5HT1A receptor and 5HT1D receptors is reported. The compounds affinity for the 5HT1D site was determined by the binding procedure of Peroutka et al as reported in European Journal of Pharmacology, Vol. 163 at pages 133-166 (1989). The compounds affinity for the 5HT1A receptor was determined by the procedure of Gozlan et al., as reported in Nature, Volume 305, at pages 140-142 (1983). Where multiple determinations of the binding affinity have been performed, the average is given followed by the number of determinations in parentheses. Also, the PA2 value for the saphenous vein preparation as described in this application is given, followed by the intrinsic (agonist) activity in parentheses, expressed as a percentage. [drawing 10]
We have used canine saphenous vein for studying 5-HT1D receptors which is similar, although not totally identical, to human coronary 5-HT1D receptors (see Humphrey, P. P. A., Feniuk, W., Perren, M. J., Connor, H. E., Oxford, A. W., Coates, I. H. and Butina, D.: GR43175, a selective agonist for the 5-HT1 -like receptor in dog isolated saphenous vein, Br. J. Pharmacol. 94:1123-1132, 1988; Kaumann, A. J.: Human heart 5-HT receptors, Second international symposium on serotonin, from cell biology to pharmacology and therapeutics, Houston, Sep. 15-18, 1992).
Mongrel dogs weighing 12-18 kg were killed by an intravenous injection of an overdose of sodium pentobarbitol. Saphenous veins were isolated, removed, cleaned of surrounding connective tissue, and cut into helical strips in a dish containing Krebs-Henseleit solution with the following composition in mM: NaCl, 110.0; KCl, 4.8; CaCl2, 2.5; KH2 PO4, 1.2; EDTA(NaEDTA), 0.027; and was constantly bubbled with 95% O2 -5% CO2. Unless otherwise specified, the endothelium of the […] was removed by rubbing with a metal rod. The intactness or absence of functional endothelium was checked by the presence or absence of a relaxant effect of acetycholine (10^-5 M) in phenylephrine-contracted tissues (see Furchgott, R. F. and Zawadzki, J. V.: The obligatory role of endothelial cells in the relaxtion of arterial smooth muscle by acetycholine, Nature 288:373-376, 1980). Each muscle strip (3×30 mm) was set up in a tissue bath at 37° C. and loaded with 2 gram tension. Contractility of the tissues was measured isometrically with a Grass FT03 force-displacement transducer and recorded on a Strip chart recorder. The tissues were allowed to stabilize for 2 hours before the experiment was started, during which time they were washed repeatedly. Tissues were contracted with 3.162×10^-6 M phenylephrine and 40 mM KCl, which produced 60-70% of their maximum contractile responses, to condition the tissue. 5-HT dose response experiment was conducted. Test compounds were then incubated with the tissue before a second 5-HT dose response experiment was performed. Data are expressed as the pA2 value, the negative logarithm of the molar concentration of antagonist which produced a 2 fold shift in ED50 values of 5-HT dose response curves (see Van Rossum, J. M.: Cumulative dose-response curve: Technique for the making of dose-response curves in isolated organs and the evaluation of drug parameters, Arch. Int. Pharmacodyn. Ther. 143:299-330, 1963).

[6] = average of multiple determinations where number in parentheses is given, read-out: IC50 (5HT1A Binding Affinity)
[7] = average of multiple determinations where number in parentheses is given, read-out: IC50 (5HT1D Binding Affinity)
[8] = negative log molar concentration of antagonist producing 2 fold shift in ED50 of 5-HT dose response curves, read-out: pA2 (blocking of 5-HT1-like-mediated contraction in canine saphenous vein) (converted)
[9] = canine saphenous vein, printed in parentheses after pA2

Row | Compound | IC50 (5HT1A receptor) | ED50 [1] | IC50 (5HT1D receptor) | Kb (5-HT1D receptors; [8]) | further results
1 | Cc1ccc(CCN2CCN(c3cccc4sc(C(N)=O)cc34)CC2)cc1 [Example 29, 4-[4-[2-(4-methylphenyl)ethyl]-1-perazinyl]-benzo[b]thiophene-2-carboxamide monohydrochloride] | 1 nM | 0.03 mg/kg | 3 nM | – | –
2 | Cl.OCc1cc2c(N3CCN(CCc4ccccc4)CC3)cccc2s1 [Example 7, 4[4(2-phenylethyl)-1-piperazinyl]-benzo[b]thiophene-2-methanol monohydrochloride] | 0.6 nM | 0.61 mg/kg | 2.4 nM | – | –
3 | O=C1c2ccccc2S(=O)(=O)N1CCCCN1CCN(c2ncccn2)CC1 [ipsapirone] | – | – | – | – | neuronal destruction in rodent models of stroke [2]: inhibited or decreased neuronal destruction
4 | OCc1cc2c(N3CCN(CCCc4ccccc4)CC3)cccc2s1 [Example 15, 4-[4-(3,phenylpropyl)-1-piperazinyl]-benzo[b]thiophene-2-methanol monohydrochloride] | – | 1.74 mg/kg | – | – | IC50 (5HT1A receptor; [6]): 1.8 nM; decrease of fear-potentiated startle ([3]; doses of 2.5, 20.0, and 40.0 mg/kg s.c., p<.05 vs vehicle, Fisher PLSD): decreased fear-potentiated startle with statistically significant effects; anxiolytic activity in the fear-potentiated startle test ([3]; s.c., 15 minutes before test): significant anxiolytic activity; baseline startle reflex (muscle relaxant activity) ([3]; s.c., Noise-Alone trials): did not decrease the baseline startle reflex; IC50 (5HT1D receptor; [7]): 23 nM
5 | O=C(NCCN1CCN(c2cccc3c2OC[C@H](CO)O3)CC1)c1ccc(F)cc1 [flesinoxan] | – | – | – | – | antihypertensive effect in rodent models [4]: effective for the treatment of hypertension in rodent models
6 | CCCN(CCC)C1Cc2c[nH]c3ccc(OC)c(c23)C1.Cl (stereo not drawn) [Bay R 1531] | – | – | – | – | neuronal destruction in rodent models of stroke [2]: inhibited or decreased neuronal destruction
7 | O=C1CC2(CCCC2)CC(=O)N1CCCCN1CCN(c2ncccn2)CC1 [buspirone] | – | – | – | – | raphe cell firing [5]: inhibit raphe cell firing
8 | N#Cc1cc2c(N3CCN(CCc4ccc(Cl)cc4)CC3)cccc2s1 [Example 20, 4-[4-[2-(4-chlorophenyl)ethyl]-1-piperazinyl]-benzo[b]thiophene-2-nitrile monohydrochloride] | 13 nM | – | 31 nM | – | Kb (5-HT1D receptors): 42.7 nM; Emax (5-HT1D receptors): 34%
9 | CC(C)(O)c1cc2c(N3CCN(CCc4ccccc4)CC3)cccc2s1 [Example 41, 2-[4-[4-(2-phenylethyl)-1-piperazinyl]benzo[b]thiophene-2-]-(2-propanol) hydrochloride hemihydrate] | 4 nM | – | 16 nM | 36.3 nM | Emax (5-HT1D receptors): 16%
10 | CNC(=O)c1cc2c(N3CCN(CCc4ccccc4)CC3)cccc2s1 [Example 10, 4-[4-(2-phenylethyl)-1-piperazinyl]-benzo[b]thiophene-2-(N-methyl)-carboxamide monohydrochloride] | 1 nM | – | 1 nM | 0.0251 nM | Emax (5-HT1D receptors): 25%
11 | CC1(C)CC(=O)N(CCCCN2CCN(c3ncccn3)CC2)C(=O)C1 [gepirone] | – | – | – | – | neuronal destruction in rodent models of stroke [2]: inhibited or decreased neuronal destruction
12 | COCc1cc2c(N3CCN(CCc4ccccc4)CC3)cccc2s1 [Example 37, 4-[4-(2-phenylethyl)-1-piperazinyl]-benzo[b]thiophene-2-(O-methyl)-methanol hydrochloride] | 5 nM | – | 9 nM | 9.33 nM | Emax (5-HT1D receptors): 0%
13 | O=C(NCc1ccccc1)c1cc2c(N3CCN(CCc4ccccc4)CC3)cccc2s1 [Example 13, 4-[4-(2-phenylethyl)-1-piperazinyl]-benzo[b]thiophene-2-(N-phenylmethyl)-carboxamide monohydrochloride] | – | – | – | 1.74 nM | IC50 (5HT1A receptor; [6]): 27 nM; Emax (5-HT1D receptors; [9]): 0%; IC50 (5HT1D receptor; [7]): 31 nM
14 | Cl.NC(=O)c1cc2c(N3CCN(CCc4ccc(Cl)cc4)CC3)cccc2s1 [Example 21, 4-[4-[2-(4-chlorophenyl)ethyl]-1-piperazinyl]-benzo[b]thiophene-2-carboxamide monohydrochloride] | 2 nM | 0.05 mg/kg | 14 nM | – | –
15 | CON(C)C(=O)c1cc2c(N3CCN(CCc4ccccc4)CC3)cccc2s1 [Example 40, 4-[4-(2-phenylethyl)-1-piperazinyl]-benzo[b]thiophene-2-(N-methyl-N-methoxy)-carboxamide hydrochloride] | – | – | – | 3.16 nM | IC50 (5HT1A receptor; [6]): 2.4 nM; Emax (5-HT1D receptors; [9]): 3%; IC50 (5HT1D receptor; [7]): 16 nM
16 | Cl.NC(=O)c1cc2c(N3CCN(CCc4ccccc4)CC3)cccc2s1 [Example 9, 4-[4-(2-phenylethyl)-1-piperazinyl]-benzo[b]thiophene-2-carboxamide monohydrochloride] | 0.5 nM | 0.12 mg/kg | 1.6 nM | – | Kb (5-HT1D receptors): 10.2 nM
